Measurements as given in patent US6875451B2, “Compositions and methods for the treatment of primary and metastatic neoplastic diseases using arsenic compounds” (PolaRx Biopharmaceuticals Inc., priority 1997, dated 2005).

Experiments:
Assay type in all cases: cell-based
A549/ATCC = experiment: SRB growth assay, 2 days exposure, non-small cell lung cancer
Method: (§1) Arsenic trioxide (1 mg/ml, 10 mg/ampoule, manufactured by Taylor Pharmaceuticals, Decatur, Ill.) was tested at five concentrations each at 10-fold dilutions, i.e., 10^−5, 10^−6, 10^−7, 10^−8 and 10^−9 μg/ml.
(§2) The in vitro tests were performed by incubating the test cells in the presence of the indicated concentration of arsenic trioxide under standard culture conditions for a designated period of time, which is followed by a sulforhodamine B (SRB) protein assay to estimate cell viability or growth. The cell lines are organized into subpanels according to the origin of the cell lines, e.g., leukemia, breast cancer, etc. A description of the cell lines and method of testing is described in Monk et al. (1997, Anticancer Drug Des. 12:533-41) and Weinstein et al., (1997, Science 275:343-9), which are incorporated herein in their entirety.
(§3) The measurement of an effect is expressed in Percentage Growth (PG). The measured effect of the compound on a cell line is calculated according to one or the other of the following two expressions: If (Mean ODtest−Mean ODzero)≧0. then PG=100×(Mean ODtest−Mean ODzero)/(Mean ODctrl−Mean ODzero) If (Mean ODtest−Mean ODzero)<0. then PG=100×(Mean ODtest−Mean ODzero)/(Mean ODzero where: • Mean ODzero=the average of optical density measurements of SRB-derived color just before exposure of cells to the test compounds; • Mean ODtest=the average of optical density measurements of SRB-derived color after exposure of cells to the test compound for a designated period of time; and • Mean ODctrl=the average of optical density measurements of SRB-derived color after with no exposure of cells to the test compound for a designated period of time
(§4) The first two columns describe the subpanel (e.g., leukemia) and cell line (e.g., CCRF-CEM) involved. The next two columns list the Mean ODzero and Mean ODctrl; the next five columns list the Mean ODtest for each of five different concentrations. Each concentration is expressed as the log10 (molar or μg/ml). The next five columns list the calculated PGs for each concentration. The response parameters GI50, TGI and LC50 are interpolated values representing the concentrations at which the PG is +50, 0, and −50, respectively. Sometimes these response parameters cannot be obtained by interpolation. If, for instance, all of the PGs in a given row exceed +50, then none of the three parameters can be obtained by interpolation. In such a case, the value given for each response parameter is the highest concentration tested and is preceded by a “>” sign. This practice is extended similarly to the other possible situations where a response parameter cannot be obtained by interpolation.
(§5) In the first set, the cells from 56 different cancer cell lines were exposed to five concentrations of arsenic trioxide continuously for two days prior to performing the SRB assay. In the second set, the cells from 50 different cell lines (a subset of the first 56 cell lines, plus the renal cancer cell line 786-0) were exposed continuously for six days prior to the SRB assay.

EKVX = experiment: as above
Method: as §1, §2, §3, §4, §5

HOP-62 = experiment: as above
Method: as §1, §2, §3, §4, §5

NCI-H23 = experiment: as above
Method: as §1, §2, §3, §4, §5

NCI-H460 = experiment: as above
Method: as §1, §2, §3, §4, §5

786-O = experiment: SRB growth assay, 6 days exposure, renal cancer; conditions: 786-0, 6 days
Method: as §1, §2, §3, §4, §5

A498 = experiment: SRB growth assay, 6 days exposure, renal cancer; conditions: A498, 6 days
Method: as §1, §2, §3, §4, §5

CAKI-1 = experiment: SRB growth assay, 6 days exposure, renal cancer; conditions: CAKI-1, 6 days
Method: as §1, §2, §3, §4, §5

RXF 393 = experiment: SRB growth assay, 6 days exposure, renal cancer; conditions: RXF393, 6 days
Method: as §1, §2, §3, §4, §5

S12C = experiment: SRB growth assay, 6 days exposure, renal cancer
Method: as §1, §2, §3, §4, §5

Substance: arsenic trioxide
- TGI (A549/ATCC): >0.0126 ng/mL
- Percent Growth (A549/ATCC; log10 conc −4.9): 69%
- Percent Growth (A549/ATCC; log10 conc −5.9): 108%
- Percent Growth (A549/ATCC; log10 conc −6.9): 100%
- Percent Growth (A549/ATCC; log10 conc −7.9): 102%
- Percent Growth (A549/ATCC; log10 conc −8.9): 100%
- TGI (EKVX): >0.0126 ng/mL
- Percent Growth (EKVX; log10 conc −4.9): 11%
- Percent Growth (EKVX; log10 conc −5.9): 130%
- Percent Growth (EKVX; log10 conc −6.9): 127%
- Percent Growth (EKVX; log10 conc −7.9): 129%
- Percent Growth (EKVX; log10 conc −8.9): 119%
- TGI (HOP-62): >0.0126 ng/mL
- Percent Growth (HOP-62; log10 conc −4.9): 35%
- Percent Growth (HOP-62; log10 conc −5.9): 97%
- Percent Growth (HOP-62; log10 conc −6.9): 100%
- Percent Growth (HOP-62; log10 conc −7.9): 99%
- Percent Growth (HOP-62; log10 conc −8.9): 97%
- TGI (NCI-H23): >0.0126 ng/mL
- Percent Growth (NCI-H23; log10 conc −4.9): 58%
- Percent Growth (NCI-H23; log10 conc −5.9): 101%
- Percent Growth (NCI-H23; log10 conc −6.9): 127%
- Percent Growth (NCI-H23; log10 conc −7.9): 121%
- Percent Growth (NCI-H23; log10 conc −8.9): 115%
- TGI (NCI-H460): >0.0126 ng/mL
- Percent Growth (NCI-H460; log10 conc −4.9): 49%
- Percent Growth (NCI-H460; log10 conc −5.9): 92%
- Percent Growth (NCI-H460; log10 conc −6.9): 100%
- Percent Growth (NCI-H460; log10 conc −7.9): 95%
- Percent Growth (NCI-H460; log10 conc −8.9): 89%
- TGI (786-O): 2.77E−06
- Mean Optical Densities (786-O; Log 10 Concentration −4.9): −0.003
- Percent Growth (786-O; Log 10 Concentration −4.9): −100%
- Mean Optical Densities (786-O; Log 10 Concentration −5.9): 0.832
- Percent Growth (786-O; Log 10 Concentration −5.9): 52%
- Mean Optical Densities (786-O; Log 10 Concentration −6.9): 1.786
- Percent Growth (786-O; Log 10 Concentration −6.9): 113%
- Mean Optical Densities (786-O; Log 10 Concentration −7.9): 1.821
- Percent Growth (786-O; Log 10 Concentration −7.9): 116%
- Mean Optical Densities (786-O; Log 10 Concentration −8.9): 1.582
- Percent Growth (786-O; Log 10 Concentration −8.9): 100%
- TGI (A498): 4.85E−06
- Mean Optical Densities (A498; Log 10 Concentration −4.9): 0.025
- Percent Growth (A498; Log 10 Concentration −4.9): −52%
- Mean Optical Densities (A498; Log 10 Concentration −5.9): 0.558
- Percent Growth (A498; Log 10 Concentration −5.9): 73%
- Mean Optical Densities (A498; Log 10 Concentration −6.9): 0.837
- Percent Growth (A498; Log 10 Concentration −6.9): 114%
- Mean Optical Densities (A498; Log 10 Concentration −7.9): 0.764
- Percent Growth (A498; Log 10 Concentration −7.9): 103%
- Mean Optical Densities (A498; Log 10 Concentration −8.9): 0.826
- Percent Growth (A498; Log 10 Concentration −8.9): 112%
- TGI (CAKI-1): 2.43E−06
- Mean Optical Densities (CAKI-1; Log 10 Concentration −4.9): 0.004
- Percent Growth (CAKI-1; Log 10 Concentration −4.9): −88%
- Mean Optical Densities (CAKI-1; Log 10 Concentration −5.9): 0.491
- Percent Growth (CAKI-1; Log 10 Concentration −5.9): 35%
- Mean Optical Densities (CAKI-1; Log 10 Concentration −6.9): 1.573
- Percent Growth (CAKI-1; Log 10 Concentration −6.9): 117%
- Mean Optical Densities (CAKI-1; Log 10 Concentration −7.9): 1.725
- Percent Growth (CAKI-1; Log 10 Concentration −7.9): 128%
- Mean Optical Densities (CAKI-1; Log 10 Concentration −8.9): 1.254
- Percent Growth (CAKI-1; Log 10 Concentration −8.9): 93%
- TGI (RXF 393): 2.96E−06
- Mean Optical Densities (RXF 393; Log 10 Concentration −4.9): 0.017
- Percent Growth (RXF 393; Log 10 Concentration −4.9): −91%
- Mean Optical Densities (RXF 393; Log 10 Concentration −5.9): 0.909
- Percent Growth (RXF 393; Log 10 Concentration −5.9): 54%
- Mean Optical Densities (RXF 393; Log 10 Concentration −6.9): 1.727
- Percent Growth (RXF 393; Log 10 Concentration −6.9): 116%
- Mean Optical Densities (RXF 393; Log 10 Concentration −7.9): 1.301
- Percent Growth (RXF 393; Log 10 Concentration −7.9): 84%
- Mean Optical Densities (RXF 393; Log 10 Concentration −8.9): 1.327
- Percent Growth (RXF 393; Log 10 Concentration −8.9): 86%
- LC50 (concentration killing 50% of cells) (S12C): > 12.6 µM
- TGI (S12C): 5.67E−06
- Mean Optical Densities (S12C; Log 10 Concentration −4.9): 0.013
- Percent Growth (S12C; Log 10 Concentration −4.9): −46%
- Mean Optical Densities (S12C; Log 10 Concentration −5.9): 0.829
- Percent Growth (S12C; Log 10 Concentration −5.9): 86%
- Mean Optical Densities (S12C; Log 10 Concentration −6.9): 1.113
- Percent Growth (S12C; Log 10 Concentration −6.9): 117%
- Mean Optical Densities (S12C; Log 10 Concentration −7.9): 1.141
- Percent Growth (S12C; Log 10 Concentration −7.9): 120%
- Mean Optical Densities (S12C; Log 10 Concentration −8.9): 0.882
- Percent Growth (S12C; Log 10 Concentration −8.9): 92%
